For the assay, the target named is T1, Human plasma kallikrein (Homo sapiens, UniProt P03952).
T1 construct: yields a heavy chain (371 amino acids) and a light chain (248 amino acids); purchased Enzyme Research Laboratories
T1 sequence (P03952 391-638 limits assumed): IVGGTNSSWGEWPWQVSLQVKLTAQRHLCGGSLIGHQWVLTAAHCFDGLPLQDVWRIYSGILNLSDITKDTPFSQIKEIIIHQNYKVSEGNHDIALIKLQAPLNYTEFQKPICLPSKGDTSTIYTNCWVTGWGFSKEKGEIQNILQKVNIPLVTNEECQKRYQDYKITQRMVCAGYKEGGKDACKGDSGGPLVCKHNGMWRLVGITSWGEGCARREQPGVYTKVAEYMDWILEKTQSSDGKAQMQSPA
T1 sequence (P03952 20-390 partner limits assumed): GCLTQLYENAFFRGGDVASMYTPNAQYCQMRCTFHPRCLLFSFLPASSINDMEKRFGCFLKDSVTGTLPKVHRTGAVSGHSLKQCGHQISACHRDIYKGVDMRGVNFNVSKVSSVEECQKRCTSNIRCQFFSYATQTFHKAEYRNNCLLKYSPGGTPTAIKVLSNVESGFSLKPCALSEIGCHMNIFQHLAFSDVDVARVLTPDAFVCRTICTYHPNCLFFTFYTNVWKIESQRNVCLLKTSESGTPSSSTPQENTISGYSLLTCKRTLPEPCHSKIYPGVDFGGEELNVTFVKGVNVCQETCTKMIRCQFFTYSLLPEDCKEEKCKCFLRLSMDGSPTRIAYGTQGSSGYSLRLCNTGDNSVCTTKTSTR
In words: Plasma Kallikrein Assay. It is filed as biochemical. Conditions: purified Human plasma kallikrein 0.5 nM, substrate Acetyl-K-P-R-AFC, pH 7.4. The method, then:
The effectiveness of a compound of the present invention as an inhibitor of plasma kallikrein can be determined using a relevant purified serine protease, and an appropriate synthetic substrate. The rate of hydrolysis of the chromogenic or fluorogenic substrate by the relevant serine protease was measured both in the absence and presence of compounds of the present invention. Assays were conducted at rt or at 37° C. […] A decrease in the rate of fluorescence change in the presence of inhibitor is indicative of enzyme inhibition. Such methods are known to one skilled in the art. The results of this assay are expressed as the half-maximal inhibitory concentrations (IC50), or the inhibitory constant, Ki.
Plasma kallikrein determinations were made in 50 mM HEPES buffer at pH 7.4 containing 150 mM NaCl, 5 mM CaCl2), and 0.1% PEG 8000 (polyethylene glycol; Fisher Scientific). […]
Times required to achieve equilibration between enzyme and inhibitor were determined in control experiments. The reactions were performed under linear progress curve conditions and fluorescence increase measured at 405 Ex/510 Em nm. […] IC50 was determined by inflection point from a four parameter logistic curve fit. Ki was calculated using the Cheng Prusoff equation, Ki=IC50/(1+([S]/Km)).
For `CC1C2CC2CN1c1ncc(C(CO)n2cc(NC(=O)c3cncc(-c4c(C(F)F)ccc(Cl)c4F)n3)cn2)cn1` (single isomer, unassigned) [Example 51, 6-(3-Chloro-6-(difluoromethyl)-2-fluorophenyl)-N-(1-((R or S)-2-hydroxy-1-(2-((1R,2S,5S or 1S,2R, 5R)-2-methyl-3-azabicyclo[3.1.0]hexan-3-yl)pyrimidin-5-yl)ethyl)-1H-pyrazol-4-yl)pyrazine-2-carboxamide], the IC50 stood at 3770 nM.
In turn, `CC(c1cnc(N2CC[C@H]2CN[C@@H]2CCC[C@H]2O)nc1)n1cc(NC(=O)c2cncc(-c3c(C(F)F)ccc(Cl)c3F)n2)cn1` (stereo partly drawn) [Example 181, 6-(3-Chloro-6-(difluoromethyl)-2-fluorophenyl)-N-(1-(1-(2-((S)-2-((((1R,2R)-2-hydroxycyclopentyl)amino)methyl)azetidin-1-yl)pyrimidin-5-yl)ethyl)-1H-pyrazol-4-yl)pyrazine-2-carboxamide] registered an IC50 of 4.2 nM.
In the case of `O=C(Nc1cnn(Cc2ccc(N3CCC4OCCC43)nc2)c1)c1cncc(-c2c(C(F)F)ccc(Cl)c2F)n1` (centres unmarked) [Example 117, 6-(3-Chloro-6-(difluoromethyl)-2-fluorophenyl)-N-(1-((6-(hexahydro-4H-furo[3,2-b]pyrrol-4-yl)pyridin-3-yl)methyl)-1H-pyrazol-4-yl)pyrazine-2-carboxamide], it took 5.4 nM to reach half-maximal inhibition (IC50).
The value for `C[C@H](c1cnc(N2C[C@H]3C[C@H]3[C@H]2C#N)nc1)n1cc(NC(=O)c2cncc(-c3c(C(F)F)ccc(Cl)c3F)n2)cn1` (single isomer, unassigned) [Example 196] was 4.7 nM; that for `CC(c1cnc(N2Cc3ccncc3C2)nc1)n1cc(NC(=O)c2cncc(-c3c(C(F)F)ccc(Cl)c3F)n2)cn1` (centres unmarked) [Example 89, 6-(3-Chloro-6-(difluoromethyl)-2-fluorophenyl)-N-(1-(1-(2-(1,3-dihydro-2H-pyrrolo[3,4-c]pyridin-2-yl)pyrimidin-5-yl)ethyl)-1H-pyrazol-4-yl)pyrazine-2-carboxamide] was 17.3 nM; that for `CN1C2CCC1CN(c1ccc(Cn3cc(NC(=O)c4cncc(-c5c(C(F)F)ccc(Cl)c5F)n4)cn3)cn1)C2` [Example 205, 6-(3-Chloro-6-(difluoromethyl)-2-fluorophenyl)-N-(1-((6-(8-methyl-3,8-diazabicyclo[3.2.1]octan-3-yl)pyridin-3-yl)methyl)-1H-pyrazol-4-yl)pyrazine-2-carboxamide] was 14.1 nM.
Compound `CC(c1cnc(N2CC3CC3C2)nc1)n1cc(NC(=O)c2nc(-c3c(C(F)F)ccc(Cl)c3F)cnc2N)cn1` (single isomer, unassigned) [Example 33, N-(1-((1S or 1R)-1-(2-(3-azabicyclo[3.1.0]hexan-3-yl)pyrimidin-5-yl)ethyl)-1H-pyrazol-4-yl)-3-amino-6-(3-chloro-6-(difluoromethyl)-2-fluorophenyl)pyrazine-2-carboxamide] displayed an IC50 of 26.5 nM.
Compound `CC(c1cnc(N2CC[C@H]2CN2CCC[C@@H](O)C2)nc1)n1cc(NC(=O)c2cncc(-c3c(C(F)F)ccc(Cl)c3F)n2)cn1` (stereo partly drawn) [Example 177, 6-(3-Chloro-6-(difluoromethyl)-2-fluorophenyl)-N-(1-(1-(2-((S)-2-(((R)-3-hydroxypiperidin-1-yl)methyl)azetidin-1-yl)pyrimidin-5-yl)ethyl)-1H-pyrazol-4-yl)pyrazine-2-carboxamide] displayed an IC50 of 1.2 nM.
The value for `CC(c1cnc(N2CCC[C@@H]2C(N)=O)nc1)n1cc(NC(=O)c2cncc(-c3c(C(F)F)ccc(Cl)c3F)n2)cn1` (mixture of isomers) [Example 104, N-(1-((R and S)-1-(2-((R)-2-Carbamoylpyrrolidin-1-yl)pyrimidin-5-yl)ethyl)-1H-pyrazol-4-yl)-6-(3-chloro-6-(difluoromethyl)-2-fluorophenyl)pyrazine-2-carboxamide] was 32.9 nM.
The compound `CC(c1cnc(N2CCN(C)C(=O)C2)nc1)n1cc(NC(=O)c2cncc(-c3c(C(F)F)ccc(Cl)c3F)n2)cn1` (centres unmarked) [Example 95, 6-(3-Chloro-6-(difluoromethyl)-2-fluorophenyl)-N-(1-(1-(2-(4-methyl-3-oxopiperazin-1-yl)pyrimidin-5-yl)ethyl)-1H-pyrazol-4-yl)pyrazine-2-carboxamide] registered an IC50 of 21.7 nM.
The value for `CC(c1cnc(N2CC[C@H]2CN2CC(O)(C3CC3)C2)nc1)n1cc(NC(=O)c2cncc(-c3c(C(F)F)ccc(Cl)c3F)n2)cn1` (stereo partly drawn) [Example 172, 6-(3-Chloro-6-(difluoromethyl)-2-fluorophenyl)-N-(1-(1-(2-((S)-2-((3-cyclopropyl-3-hydroxyazetidin-1-yl)methyl)azetidin-1-yl)pyrimidin-5-yl)ethyl)-1H-pyrazol-4-yl)pyrazine-2-carboxamide] was 1.8 nM; that for `NC(=O)[C@@H]1CCCN1c1ccc(Cn2cc(NC(=O)c3cncc(-c4c(C(F)F)ccc(Cl)c4F)n3)cn2)cn1` [Example 116, (S)-N-(1-((6-(2-Carbamoylpyrrolidin-1-yl)pyridin-3-yl)methyl)-1H-pyrazol-4-yl)-6-(3-chloro-6-(difluoromethyl)-2-fluorophenyl)pyrazine-2-carboxamide] was 3.6 nM.
For `CC(c1cnc(N2CC[C@H]2CN2C[C@H](O)C[C@H]2C)nc1)n1cc(NC(=O)c2cncc(-c3c(C(F)F)ccc(Cl)c3F)n2)cn1` (stereo partly drawn) [Example 164, 6-(3-Chloro-6-(difluoromethyl)-2-fluorophenyl)-N-(1-(1-(2-((S)-2-(((2R,4R)-4-hydroxy-2-methylpyrrolidin-1-yl)methyl)azetidin-1-yl)pyrimidin-5-yl)ethyl)-1H-pyrazol-4-yl)pyrazine-2-carboxamide], it took 3.4 nM to reach half-maximal inhibition (IC50).
In the case of `CC(N)C1CCCN1c1ncc(Cn2cc(NC(=O)c3cncc(-c4c(C(F)F)ccc(Cl)c4F)n3)cn2)cn1` (single isomer, unassigned) [Example 160, N-(1-((2-(2-(1-Aminoethyl)pyrrolidin-1-yl)pyrimidin-5-yl)methyl)-1H-pyrazol-4-yl)-6-(3-chloro-6-(difluoromethyl)-2-fluorophenyl)pyrazine-2-carboxamide], inhibition was half-maximal at 42.9 nM (IC50).
Compound `CC(c1cnc(N(CCO)Cc2ccccn2)nc1)n1cc(NC(=O)c2cncc(-c3c(C(F)F)ccc(Cl)c3F)n2)cn1` (centres unmarked) [Example 85, 6-(3-Chloro-6-(difluoromethyl)-2-fluorophenyl)-N-(1-(1-(2-((2-hydroxyethyl)(pyridin-2-ylmethyl)amino)pyrimidin-5-yl)ethyl)-1H-pyrazol-4-yl)pyrazine-2-carboxamide] registered an IC50 of 11.8 nM.
Consider `CCC(=O)C1C2CC2CN1c1ncc(Cn2cc(NC(=O)c3cncc(-c4c(C(F)F)ccc(Cl)c4F)n3)cn2)cn1` (centres unmarked) [Example 91, 6-(3-Chloro-6-(difluoromethyl)-2-fluorophenyl)-N-(1-((2-(2-propionyl-3-azabicyclo[3.1.0]hexan-3-yl)pyrimidin-5-yl)methyl)-1H-pyrazol-4-yl)pyrazine-2-carboxamide], for which half-maximal inhibition (IC50) was put at 17.9 nM.
In turn, `O=C(Nc1cnn(Cc2cnc(N3CCC4OCCC43)nc2)c1)c1cncc(-c2c(C(F)F)ccc(Cl)c2F)n1` (single isomer, unassigned) [Example 103, 6-(3-Chloro-6-(difluoromethyl)-2-fluorophenyl)-N-(1-((2-((3aS,6aS or 3aR,6aR)-hexahydro-4H-furo[3,2-b]pyrrol-4-yl)pyrimidin-5-yl)methyl)-1H-pyrazol-4-yl)pyrazine-2-carboxamide] had an IC50 of 31.3 nM.

By IC50 is commonly meant the concentration that inhibits the measured activity by half.

For the origin of these results see US20230416227A1, “PLASMA KALLIKREIN INHIBITORS” (Merck Sharp & Dohme LLC, priority 2020, published 2023).
